Assay: Solubility of the penem free acid in water
Format: physicochemical

solubility in water: only sparingly soluble
Structure (SMILES): Cn1cc(/C=C2/C(=O)N3C(C(=O)O)=CS[C@H]23)nn1 [penem free acid, Crystalline (5R) (Z)-6-(1-Methyl-1,2,3-triazol-4-ylmethylene)penem-3-carboxylic acid]

From patent US4774238A, “Heterocyclic-methylene-penems” (Beecham Group plc, priority 1985, dated 1988)
